Drawing on ChEMBL document CHEMBL3785053, “Synthesis and screening of ursolic acid-benzylidine derivatives as potential anti-cancer agents” (Eur J Med Chem, 2016), this text covers IC50, inhibition of growth and inhibition for 15 compounds.

The nature of series [1]: Cytotoxicity against human HCT116 cells after 48 hrs by MTT assay. It counts as functional, cell-based. Particulars: HCT-116, 48 h.
Series [2] is described as follows: Cytotoxicity against human THP1 cells at 50 uM after 48 hrs by MTT assay. Conditions: THP-1, 48 h, read-out: GI. It counts as functional.
Series [3] is described as follows: Cytotoxicity against human FR2 cells at 50 uM after 48 hrs by MTT assay. It counts as cell-based. Conditions: read-out: GI.
Series [4] in a line: Cytotoxicity against human HCT116 cells at 50 uM after 48 hrs by MTT assay. It counts as functional. Particulars: HCT-116, 48 h, read-out: GI.
In series [5] the test system is A549. Description: Cytotoxicity against human A549 cells at 50 uM after 48 hrs by MTT assay. It counts as functional. Conditions: A549, 48 h, read-out: GI.
Series [6] concerns MCF7. Description: Cytotoxicity against human MCF7 cells at 50 uM after 48 hrs by MTT assay. It counts as functional. Particulars: MCF7, 48 h, read-out: GI.
Series [7] in a line: Cytotoxicity against human THP1 cells after 48 hrs by MTT assay. It counts as functional, cell-based. Particulars: THP-1, 48 h.
Series [8] in a line: Cytotoxicity against human FR2 cells after 48 hrs by MTT assay. It counts as cell-based. Particulars: FR2, 48 h.
The test system of series [9] is A549. Description: Cytotoxicity against human A549 cells after 48 hrs by MTT assay. It counts as functional, cell-based. Particulars: A549, 48 h.
For series [10], the system named is MCF7. Description: Cytotoxicity against human MCF7 cells after 48 hrs by MTT assay. It counts as functional, cell-based. Conditions: MCF7, 48 h.

Structures are written as SMILES. A value given as a limit tells only on which side of the number the result lay.

For the compound `C[C@H]1[C@H](C)CC[C@]2(C(=O)O)CC[C@]3(C)C(=CC[C@@H]4[C@@]5(C)CC[C@H](O)C(C)(C)[C@@H]5CC[C@]43C)[C@H]12` [URSOLIC ACID], the half-inhibitory concentration (IC50) in series [1] is 42 µM; in [7], 9.1 µM; in series [8], 31 µM. Besides, the inhibition of growth at 50 µM came out at 84% in series [2], 53% in [4], 61% in series [5] and 57% in [6]. The inhibition at 48 h, 50 µM in [3] worked out at 66%.
As for `C[C@H]1[C@H](C)CC[C@]2(C(=O)O)CC[C@]3(C)C(=CC[C@@H]4[C@@]5(C)C/C(=C\C=C\c6ccccc6)C(=O)C(C)(C)[C@@H]5CC[C@]43C)[C@H]12`, the concentration for half-maximal inhibition (IC50) came out at 2.1 µM in series [1]; 0.65 µM in series [9]; 12 µM in [10]; 16 µM in [7]; 38 µM in series [8]. The inhibition of growth at 50 µM in series [2] was determined as 93%; in series [4], 98%; in series [5] it was 89%; in [6] it was 99%. Moreover, the inhibition at 48 h, 50 µM in [3] worked out at 80%.
As to `C[C@H]1[C@H](C)CC[C@]2(C(=O)O)CC[C@]3(C)C(=CC[C@@H]4[C@@]5(C)CCC(=O)C(C)(C)[C@@H]5CC[C@]43C)[C@H]12` [URSONIC ACID], the IC50 in series [1] was 2.3 µM; in series [9], 15 µM; in [10], 56 µM; in [7], 13 µM; in series [8], 24 µM. Also, the inhibition of growth at 50 µM was 88% in series [2], 53% in series [4], 78% in series [5] and 42% in series [6]. Moreover, in series [3], the inhibition at 48 h, 50 µM amounted to 86%.
`C[C@H]1[C@H](C)CC[C@]2(C(=O)O)CC[C@]3(C)C(=CC[C@@H]4[C@@]5(C)C/C(=C\c6ccc(Br)cc6)C(=O)C(C)(C)[C@@H]5CC[C@]43C)[C@H]12`: the IC50 in [1] was 32 µM; in [9], 15 µM; in series [10] it was 5 µM; in series [7] it was 5 µM; in series [8] it was 35 µM. The inhibition of growth at 50 µM in series [2] worked out at 95%; in series [4], 53%; in series [5], 60%; in series [6], 98%. The inhibition at 48 h, 50 µM in series [3] stood at 95%.
As for `COc1cccc(/C=C2\C[C@]3(C)[C@H]4CC=C5[C@@H]6[C@@H](C)[C@H](C)CC[C@]6(C(=O)O)CC[C@@]5(C)[C@]4(C)CC[C@H]3C(C)(C)C2=O)c1`, the IC50 in [1] was 23 µM; in series [9], 0.65 µM; in series [10], 4.2 µM; in series [7] it was 12 µM; in series [8], 40 µM. Further, the inhibition of growth at 50 µM is 95% in series [2], 65% in [4], 84% in series [5] and 98% in series [6]. Besides, the inhibition at 48 h, 50 µM in [3] amounted to 85%.
In the case of `COc1cc(OC)c(OC)cc1/C=C1\C[C@]2(C)[C@H]3CC=C4[C@@H]5[C@@H](C)[C@H](C)CC[C@]5(C(=O)O)CC[C@@]4(C)[C@]3(C)CC[C@H]2C(C)(C)C1=O`, the concentration for half-maximal inhibition (IC50) in series [1] was 12 µM; in series [9], 9 µM; in [10], 20 µM; in [7], 2 µM; in series [8] it was 40 µM. For the same compound, the inhibition of growth at 50 µM in [2] is 80%; in [4], 85%; in series [5] it was 60%; in series [6] it was 76%. Besides, the inhibition at 48 h, 50 µM in series [3] worked out at 76%.
As for `C[C@H]1[C@H](C)CC[C@]2(C(=O)O)CC[C@]3(C)C(=CC[C@@H]4[C@@]5(C)C/C(=C\c6cccc7ccccc67)C(=O)C(C)(C)[C@@H]5CC[C@]43C)[C@H]12`, the IC50 was found to be 0.64 µM in series [1]; 17 µM in series [9]; 12 µM in series [10]; 2.1 µM in series [7]; 68 µM in series [8]. Also, the inhibition of growth at 50 µM is 90% in series [2], 99% in series [4], 58% in [5] and 96% in [6]. The inhibition at 48 h, 50 µM in series [3] is 97%.
In the case of `COc1cc(/C=C2\C[C@]3(C)[C@H]4CC=C5[C@@H]6[C@@H](C)[C@H](C)CC[C@]6(C(=O)O)CC[C@@]5(C)[C@]4(C)CC[C@H]3C(C)(C)C2=O)cc(OC)c1OC`, the half-inhibitory concentration (IC50) is less than 0.9 µM in series [1]; less than 0.9 µM in [9]; 4 µM in [10]; 9.1 µM in [7]; 35 µM in series [8]. Further, the inhibition of growth at 50 µM is 93% in series [2], 99% in series [4], 99% in series [5] and 99% in series [6]. For the same compound, the inhibition at 48 h, 50 µM in [3] amounted to 81%.
As for `C[C@H]1[C@H](C)CC[C@]2(C(=O)O)CC[C@]3(C)C(=CC[C@@H]4[C@@]5(C)C/C(=C\c6ccc7ccccc7c6)C(=O)C(C)(C)[C@@H]5CC[C@]43C)[C@H]12`, the IC50 in [1] came out at 0.53 µM; in series [9], 16 µM; in [10], 21 µM; in series [7] it was 5 µM; in [8], 40 µM. Also, the inhibition of growth at 50 µM in series [2] was determined as 98%; in [4], 89%; in series [5] it was 60%; in series [6] it was 90%. In addition, the inhibition at 48 h, 50 µM in series [3] worked out at 75%.
For the compound `C[C@H]1[C@H](C)CC[C@]2(C(=O)O)CC[C@]3(C)C(=CC[C@@H]4[C@@]5(C)C/C(=C\c6ccccc6)C(=O)C(C)(C)[C@@H]5CC[C@]43C)[C@H]12`, the IC50 in [1] is 14 µM; in [9], 18 µM; in series [10] it was 23 µM; in series [7], 16 µM; in [8], 70 µM. Further, the inhibition of growth at 50 µM in [2] was 90%; in [4] it was 95%; in series [5], 60%; in series [6], 98%. Moreover, in series [3], the inhibition at 48 h, 50 µM worked out at 90%.
Take `O=c1[nH]cc(F)c(=O)[nH]1` [FLUOROURACIL]: the IC50 was 2.3 µM in series [1], 1.4 µM in series [9], 2 µM in series [10] and 1.7 µM in [7]. Also, the inhibition of growth at 50 µM in series [2] was 89%; in series [4], 79%; in series [5] it was 82%; in [6] it was 92%.
For `C[C@H]1[C@H](C)CC[C@]2(C(=O)O)CC[C@]3(C)C(=CC[C@@H]4[C@@]5(C)C/C(=C\c6ccc([N+](=O)[O-])cc6)C(=O)C(C)(C)[C@@H]5CC[C@]43C)[C@H]12`, the half-inhibitory concentration (IC50) in [1] was found to be 12 µM; in series [9], 2 µM; in series [10], 5 µM; in [7], 14 µM; in series [8] it was 69 µM. Also, the inhibition of growth at 50 µM in [2] was 95%; in series [4], 95%; in series [5], 99%; in series [6], 95%. In series [3], the inhibition at 48 h, 50 µM is 99%.
As to `C[C@H]1[C@H](C)CC[C@]2(C(=O)O)CC[C@]3(C)C(=CC[C@@H]4[C@@]5(C)C/C(=C\c6cccc(Cl)c6)C(=O)C(C)(C)[C@@H]5CC[C@]43C)[C@H]12`, the 50% inhibitory concentration (IC50) was 4.1 µM in series [1]; 7 µM in series [9]; 29 µM in series [10]; 5 µM in series [7]; 45 µM in series [8]. Besides, the inhibition of growth at 50 µM in [2] is 85%; in series [4], 90%; in series [5], 65%; in [6], 70%. Also, the inhibition at 48 h, 50 µM in series [3] worked out at 80%.
Take `C[C@H]1[C@H](C)CC[C@]2(C(=O)O)CC[C@]3(C)C(=CC[C@@H]4[C@@]5(C)C/C(=C\c6ccccc6[N+](=O)[O-])C(=O)C(C)(C)[C@@H]5CC[C@]43C)[C@H]12`: the IC50 in series [1] amounted to 5 µM; in [9] it was 6.4 µM; in series [10], 30 µM; in [7] it was 1.1 µM; in [8], 44 µM. Also, the inhibition of growth at 50 µM came to 86% in series [2], 91% in [4], 64% in [5] and 73% in [6]. Moreover, the inhibition at 48 h, 50 µM in [3] was 78%.
Take `C[C@H]1[C@H](C)CC[C@]2(C(=O)O)CC[C@]3(C)C(=CC[C@@H]4[C@@]5(C)C/C(=C\c6ccc(O)cc6)C(=O)C(C)(C)[C@@H]5CC[C@]43C)[C@H]12`: the IC50 was determined as 15 µM in series [1]; 2.1 µM in series [9]; 5 µM in series [10]; 4.1 µM in series [7]; 70 µM in [8]. In addition, the inhibition of growth at 50 µM in [2] is 99%; in [4] it was 99%; in series [5], 98%; in [6], 98%. In addition, the inhibition at 48 h, 50 µM in [3] came out at 90%.
